Assay results from patent publication US9750481B2, “System and method for analyzing antegrade and retrograde blood flow” (Indiana University Research and Technology Corporation, priority 2014, dated 2017).
Entries after “also recorded” stand apart in the source; their conditions may differ.

Columns and labels:
[1] = test system: superficial femoral artery (SFA); experiment: Shear rates in the SFA by Doppler ultrasound during 3 hours of sitting with oral Vitamin C (VIT trial); type: in vivo, human; settings: Mean ± SD
Experimental: Two screening visits and two sitting trials in random sequence, one with uninterrupted sitting (SIT) and one with oral Vitamin C during the sitting time (VIT) were conducted. Specifically, SIT represents prolonged 3 hours of sitting. VIT represents prolonged sitting with intermittent vitamin C. Flow mediated dilation (FMD) was measured at 0, 1, 2 and 3 hours. Subjects ingested 1 g vitamin C at 30 minutes and 500 mg at 1 hour 30 minutes. Subjects arrived at the laboratory after an overnight fast of at least 6 hours between 7:00 AM and 9:00 AM. The arrival time was matched for both trials within each subject. Subjects were also asked to refrain from any caffeinated drink for at least 8 hours before reporting to the lab. Upon their arrival in the lab, all subjects self-reported adhering to the fasting schedule. During both trials, the subjects remained seated for 3 hours without moving their legs or feet. Subjects were allowed to move their arms, not vigorously, for example to use a computer or do light reading during the non-testing periods of the trials. Arm movement was not quantified. The flow mediated dilation (FMD) and other vascular function parameters were measured at baseline, 1 hour, 2 hours and 3 hours into testing. The two trials were performed in random order, separated by a minimum of two and a maximum of seven days. The SIT trial was uninterrupted sitting for 3 hours, whereas in the VIT trial, subjects ingested two Vitamin C tablets; 1 g at 30 minutes and 500 mg at 1 hour 30 minutes during the sitting interval. In addition to imaging the arterial dimensions, Doppler ultrasound was used to concurrently measure SFA blood velocity. Doppler flow signals were corrected at an insonation angle of 60°, and the sample volume was placed in the middle of the artery. Diameter images and Doppler measurements of blood velocity were continuously recorded for 45 seconds at baseline prior to cuff inflation. The automatic blood pressure cuff was then rapidly inflated to 250 mmHg and maintained for 5 minutes until cuff deflation. Diameter and blood velocity recordings resumed prior to cuff deflation and continued for 5 minutes after deflation. Ultrasound images were continuously recorded at 5 frames•s^-1 with […] (TechSmith, Okemos, Mich., USA), and stored as .avi files. This procedure was repeated hourly across the sitting intervals. Off-line analysis of diameters was performed using automated edge-detection software (Brachial Analyzer, Medical Imaging Applications LLC, Coralville, IA, USA). This software allows the technician to determine a region of interest where the near and far vessel walls are most clear. The vessel wall borders are then detected using an optimal graph search-based segmentation that uses a combination of pixel density and image gradient as an objective function. All analyzed images were reviewed by the technician and edited when needed to ensure that diameter measurements were always determined from the intima-lumen interface at the near and far vessel wall. Blood velocities were determined using the systems and methods described herein after automated selection of the blood flow envelop throughout the measurement. The velocity-time integral was used to calculate the mean blood velocity for each cardiac cycle. Diameters and blood velocities were not ECG-gated. The peak dilation after cuff deflation was determined using the highest 3-s moving average and was presented as a percentage change from baseline diameter (FMD %). SFA shear rate was used as an estimate of arterial shear stress and was calculated for each FMD % at baseline and during the post occlusion period using the following formula: 4•Vm•D-1 where Vm is mean blood velocity (cm• s-1) and D is mean arterial diameter (cm). All measurements and analysis were performed by a single researcher (ST) who was blinded to the participant identity and treatment condition for each image file.

SFA endothelial function = experiment: Superficial femoral artery flow mediated dilation (SFA FMD) during 3 hours of sitting, SIT vs VIT trial; type: in vivo, human; settings: oral Vitamin C 1 g at 30 minutes and 500 mg at 1 hour 30 minutes, different at 1 hour (p=0.009), 2 hours (p=0.016), 3 hours (p=0.004)
Experimental: Two screening visits and two sitting trials in random sequence, one with uninterrupted sitting (SIT) and one with oral Vitamin C during the sitting time (VIT) were conducted. Specifically, SIT represents prolonged 3 hours of sitting. VIT represents prolonged sitting with intermittent vitamin C. Flow mediated dilation (FMD) was measured at 0, 1, 2 and 3 hours. Subjects ingested 1 g vitamin C at 30 minutes and 500 mg at 1 hour 30 minutes. Subjects arrived at the laboratory after an overnight fast of at least 6 hours between 7:00 AM and 9:00 AM. The arrival time was matched for both trials within each subject. […] Subjects were allowed to move their arms, not vigorously, for example to use a computer or do light reading during the non-testing periods of the trials. Arm movement was not quantified. The flow mediated dilation (FMD) and other vascular function parameters were measured at baseline, 1 hour, 2 hours and 3 hours into testing. […] Endothelial function was measured using SFA FMD, measured in accordance with current guidelines. […] Diameter images and Doppler measurements of blood velocity were continuously recorded for 45 seconds at baseline prior to cuff inflation. […] Ultrasound images were continuously recorded at 5 frames•s^-1 with […] […] Blood velocities were determined using the systems and methods described herein after automated selection of the blood flow envelop throughout the measurement. […]

[2] = 1 hr, oral Vitamin C 1 g at 30 minutes
[3] = 2 hr, oral Vitamin C 1 g at 30 minutes and 500 mg at 1 hour 30 minutes
[4] = 3 hr, oral Vitamin C 1 g at 30 minutes and 500 mg at 1 hour 30 minutes
[5] = Baseline (0 hr), before Vitamin C ingestion, male subjects, sitting

Q: For `O=C1O[C@H]([C@@H](O)CO)C(O)=C1O` [Vitamin C], which “Antegrade shear rate in the SFA” value [1, 2] is on record?
A: 8.58 ± 6.91 s⁻¹

Q: And the “Mean shear rate in the SFA” value [1, 2]?
A: 4.44 ± 4.23 s⁻¹

Q: And the “Antegrade shear rate in the SFA” value [1, 3]?
A: 6.56 ± 3.08 s⁻¹

Q: And the “Mean shear rate in the SFA” value [1, 3]?
A: 2.99 ± 2.6 s⁻¹

Q: And the “Antegrade shear rate in the SFA” value [1, 4]?
A: 6.22 ± 2.39 s⁻¹

Q: And the “Mean shear rate in the SFA” value [1, 4]?
A: 3.17 ± 2.14 s⁻¹

Q: And the “Antegrade shear rate in the SFA” value [1, 5]?
A: 7.03 ± 3.5 s⁻¹

Q: And the “Mean shear rate in the SFA” value [1, 5]?
A: 5.17 ± 7.54 s⁻¹

Q: What about the “Effect on decline of SFA FMD % during sitting” value (SFA endothelial function) of the same compound?
A: prevented the decline in SFA FMD; also recorded: prevented the decline in endothelial function

Q: And the “Effect on decline of SFA FMD % during sitting” value (SFA endothelial function; listed as VIT)?
A: preventing the decline of FMD
